Test results from PubChem BioAssay (NCI).
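Abbreviation: GI50, concentration required for 50% inhibition of growth. TGI: total growth inhibition.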

Experiments:
Assay in all cases: NCI-60 cell line screen, 384-well format
OVCAR-4 ovarian = test system: OVCAR-4 ovarian
OVCAR-8 ovarian = test system: OVCAR-8 ovarian
T-47D breast = test system: T-47D breast
IGROV1 ovarian = test system: IGROV1 ovarian
786-0 renal = test system: 786-0 renal
HCC-2998 colon = test system: HCC-2998 colon
EKVX NSCLC = test system: EKVX NSCLC
SF-268 CNS = test system: SF-268 CNS
UO-31 renal = test system: UO-31 renal
SW-620 colon = test system: SW-620 colon
SNB-19 CNS = test system: SNB-19 CNS
ACHN renal = test system: ACHN renal
HCT-15 colon = test system: HCT-15 colon
U251 glioblastoma = test system: U251 glioblastoma
MOLT-4 leukemia = test system: MOLT-4 leukemia
A549 NSCLC = test system: A549 NSCLC
SNB-75 CNS = test system: SNB-75 CNS
HOP-62 NSCLC = test system: HOP-62 NSCLC
MDA-MB-231 breast = test system: MDA-MB-231 breast
KM12 colon = test system: KM12 colon
NCI-H23 lung = test system: NCI-H23 lung
NCI-H322M lung = test system: NCI-H322M lung
MDA-MB-468 breast = test system: MDA-MB-468 breast
HCT-116 colon = test system: HCT-116 colon
HOP-92 NSCLC = test system: HOP-92 NSCLC
PC-3 prostate = test system: PC-3 prostate
SK-MEL-5 melanoma = test system: SK-MEL-5 melanoma
TK-10 renal = test system: TK-10 renal
RXF 393 renal = test system: RXF 393 renal
HL-60(TB) leukemia = test system: HL-60(TB) leukemia
RPMI-8226 leukemia = test system: RPMI-8226 leukemia
DU-145 prostate = test system: DU-145 prostate
SR leukemia = test system: SR leukemia
COLO 205 colon = test system: COLO 205 colon
SK-MEL-28 melanoma = test system: SK-MEL-28 melanoma
OVCAR-3 ovarian = test system: OVCAR-3 ovarian
HT29 colon = test system: HT29 colon
NCI-H460 NSCLC = test system: NCI-H460 NSCLC
NCI/ADR-RES ovarian = test system: NCI/ADR-RES ovarian
OVCAR-5 ovarian = test system: OVCAR-5 ovarian
SF-539 CNS = test system: SF-539 CNS
MALME-3M melanoma = test system: MALME-3M melanoma
NCI-H226 lung = test system: NCI-H226 lung
NCI-H522 lung = test system: NCI-H522 lung
A498 renal = test system: A498 renal
LOX IMVI melanoma = test system: LOX IMVI melanoma
M14 melanoma = test system: M14 melanoma
SN12C renal = test system: SN12C renal
CCRF-CEM leukemia = test system: CCRF-CEM leukemia
K-562 leukemia = test system: K-562 leukemia
BT-549 breast = test system: BT-549 breast
SF-295 CNS = test system: SF-295 CNS
HS 578T breast = test system: HS 578T breast
MCF7 breast = test system: MCF7 breast

CC(C)(C)c1nc(-c2cccc(NS(=O)(=O)c3c(F)cccc3F)c2F)c(-c2ccnc(N)n2)s1
GI50 (OVCAR-4 ovarian): 24.9 µM
TGI (OVCAR-4 ovarian): 52 µM
GI50 (OVCAR-8 ovarian): 44.3 µM
TGI (OVCAR-8 ovarian): 89 µM
GI50 (T-47D breast): 41.5 µM
TGI (T-47D breast): > 100 µM
GI50 (IGROV1 ovarian): 7.65 µM
TGI (IGROV1 ovarian): > 52.6 µM
GI50 ([…]-0 renal): 43.8 µM
TGI (786-0 renal): > 100 µM
GI50 (HCC-2998 colon): 34.8 µM
TGI (HCC-2998 colon): > 74.7 µM
GI50 (EKVX NSCLC): 26.6 µM
TGI (EKVX NSCLC): 59.6 µM
GI50 (SF-268 CNS): 42.3 µM
TGI (SF-268 CNS): > 84.5 µM
GI50 (UO-31 renal): 16.6 µM
TGI (UO-31 renal): > 100 µM
GI50 (SW-620 colon): 32.4 µM
TGI (SW-620 colon): > 77.4 µM
GI50 (SNB-19 CNS): 48.7 µM
TGI (SNB-19 CNS): > 100 µM
GI50 (ACHN renal): 0.183 µM
TGI (ACHN renal): > 100 µM
GI50 (HCT-15 colon): 26 µM
TGI (HCT-15 colon): > 74.4 µM
GI50 (U251 glioblastoma): 53.8 µM
TGI (U251 glioblastoma): > 100 µM
GI50 (MOLT-4 leukemia): 6.59 µM
TGI (MOLT-4 leukemia): 24.3 µM
GI50 (A549 NSCLC): 20.2 µM
TGI (A549 NSCLC): 72.5 µM
GI50 (SNB-75 CNS): > 62.8 µM
TGI (SNB-75 CNS): > 81.3 µM
GI50 (HOP-62 NSCLC): 55.5 µM
TGI (HOP-62 NSCLC): > 100 µM
GI50 (MDA-MB-231 breast): 15 µM
TGI (MDA-MB-231 breast): 37.4 µM
GI50 (KM12 colon): 27.7 µM
TGI (KM12 colon): > 70.9 µM
GI50 (NCI-H23 lung): 13.7 µM
TGI (NCI-H23 lung): 52.3 µM
GI50 (NCI-H322M lung): 23 µM
TGI (NCI-H322M lung): 69.8 µM
GI50 (MDA-MB-468 breast): 28.6 µM
TGI (MDA-MB-468 breast): 57.7 µM
GI50 (HCT-116 colon): 11.7 µM
TGI (HCT-116 colon): > 66.4 µM
GI50 (HOP-92 NSCLC): 50 µM
TGI (HOP-92 NSCLC): > 94 µM
GI50 (PC-3 prostate): 48.9 µM
TGI (PC-3 prostate): > 93.6 µM
GI50 (SK-MEL-5 melanoma): < 0.01 µM
TGI (SK-MEL-5 melanoma): > 100 µM
GI50 (TK-10 renal): 11.7 µM
TGI (TK-10 renal): > 60.7 µM
GI50 (RXF 393 renal): 50.5 µM
TGI (RXF 393 renal): > 81.6 µM
GI50 (HL-60(TB) leukemia): 3.98 µM
TGI (HL-60(TB) leukemia): 27.3 µM
GI50 (RPMI-8226 leukemia): 5.83 µM
TGI (RPMI-8226 leukemia): 19.7 µM
GI50 (DU-145 prostate): 14.9 µM
TGI (DU-145 prostate): 41.6 µM
GI50 (SR leukemia): 6.62 µM
TGI (SR leukemia): 23.8 µM
GI50 (COLO 205 colon): < 0.01 µM
GI50 (SK-MEL-28 melanoma): < 0.01 µM
GI50 (OVCAR-3 ovarian): 34.1 µM
TGI (OVCAR-3 ovarian): 60.8 µM
GI50 (HT29 colon): 0.0124 µM
TGI (HT29 colon): > 58.4 µM
GI50 (NCI-H460 NSCLC): 29.3 µM
TGI (NCI-H460 NSCLC): > 75.7 µM
GI50 (NCI/ADR-RES ovarian): 22.6 µM
TGI (NCI/ADR-RES ovarian): 53.8 µM
GI50 (OVCAR-5 ovarian): 23.8 µM
TGI (OVCAR-5 ovarian): > 85.2 µM
GI50 (SF-539 CNS): 49.7 µM
TGI (SF-539 CNS): > 94.2 µM
GI50 (MALME-3M melanoma): < 0.01 µM
GI50 (NCI-H226 lung): 22.1 µM
TGI (NCI-H226 lung): 67 µM
GI50 (NCI-H522 lung): 7.22 µM
TGI (NCI-H522 lung): 41 µM
GI50 (A498 renal): 60 µM
TGI (A498 renal): > 94.6 µM
GI50 (LOX IMVI melanoma): 1.28 µM
TGI (LOX IMVI melanoma): > 63.8 µM
GI50 (M14 melanoma): < 0.01 µM
TGI (M14 melanoma): < 0.017 µM
GI50 (SN12C renal): 38.4 µM
TGI (SN12C renal): > 100 µM
GI50 (CCRF-CEM leukemia): 14.4 µM
TGI (CCRF-CEM leukemia): > 44.1 µM
GI50 (K-562 leukemia): 4.59 µM
TGI (K-562 leukemia): 20.7 µM
GI50 (BT-549 breast): 42.7 µM
TGI (BT-549 breast): 70.1 µM
GI50 (SF-295 CNS): 48.1 µM
TGI (SF-295 CNS): > 100 µM
GI50 (HS 578T breast): 33 µM
TGI (HS 578T breast): > 75.9 µM
GI50 (MCF7 breast): 25.3 µM
TGI (MCF7 breast): 62.6 µM
